# In patent publication US8426447B2, “Spiro-tricyclic ring compounds as beta-secretase modulators and methods of use” (Amgen Inc., priority 2008, dated 2013):
# What was measured:
# BACE1 [1] = target: T1, BACE1 (Homo sapiens, UniProt P56817); assay: In Vitro Enzymatic BACE FRET (Fluorescence Resonance Energy Transfer) Assay; type: biochemical; details: read-out: BACE1 FRET assay
# In short: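 First, compound and enzyme sit in 0.05 M acetate (pH 4.2, 10% DMSO final, 100 uM nonionic genapol). Next, 50 nM quenched FRET peptide starts the reaction for one hour. Last, Tris neutralises the mixture before fluorescence is measured.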
# BACE1 [2] = target: T1, BACE1; assay: In Vitro BACE Cell-based Assay (HEK cell assay): Aβ40 in conditioned medium of cells stably expressing Amyloid Precursor Protein, sandwich ELISA; details: read-out: HEK cell assay
# Procedure: In Vitro BACE Cell-based Assay
# The cell-based assay measures inhibition or reduction of Aβ40 in conditioned medium of test compound treated cells expressing amyloid precursor protein.
# Cells stably expressing Amyloid Precursor Protein (APP) were plated at a density of 40K cells/well in 96 well plates (Costar). The cells were cultivated for 24 hours at 37° C. and 5% CO2 in DMEM supplemented with 10% FBS. The test compounds were then added to cells in 10-point dose response concentrations with the starting concentration being either 100 μM or 10 μM. The compounds were diluted from stock solutions in DMSO and the final DMSO concentration of the test compounds on cells was 0.1%. After 24 h of incubation with the test compounds the supernatant conditioned media was collected and the Aβ 40 levels were determined using a sandwich ELISA. The IC50 of the compound was calculated from the percent of control or percent inhibition of Aβ 40 as a function of the concentration of the test compound.
# The sandwich ELISA to detect Aβ 40 was performed in 96 well microtiter plates, which were pre-treated with goat anti-rabbit IgG (Pierce). The capture and detecting antibody pair that were used to detect Aβ 40 from cell supernatants were affinity purified pAb40 (Biosource) and biotinylated 6E10 (Signet Labs Inc.), respectively. The optimal concentration for the pAb40 antibody was 3 μg/ml in Superblock/TBS (Pierce) that was supplemented with 0.05% Tween 20 (Sigma).
# Cellular supernatants were incubated with the capture antibody for 3 h at 4° C., followed by 3 wash steps in TBS-tween (0.05%). The detecting antibody incubation was for 2 h at 4° C., again followed by the wash steps as described previously. The final readout of the ELISA is Time-Resolved Fluorescence (counts per minute) using Delfia reagents Streptavidin-Europium and Enhancement solutions (Perkin Elmer) and the Victor 2 multilabel counter (Perkin Elmer).
# T1 sequence (P56817 46-501, species assumed): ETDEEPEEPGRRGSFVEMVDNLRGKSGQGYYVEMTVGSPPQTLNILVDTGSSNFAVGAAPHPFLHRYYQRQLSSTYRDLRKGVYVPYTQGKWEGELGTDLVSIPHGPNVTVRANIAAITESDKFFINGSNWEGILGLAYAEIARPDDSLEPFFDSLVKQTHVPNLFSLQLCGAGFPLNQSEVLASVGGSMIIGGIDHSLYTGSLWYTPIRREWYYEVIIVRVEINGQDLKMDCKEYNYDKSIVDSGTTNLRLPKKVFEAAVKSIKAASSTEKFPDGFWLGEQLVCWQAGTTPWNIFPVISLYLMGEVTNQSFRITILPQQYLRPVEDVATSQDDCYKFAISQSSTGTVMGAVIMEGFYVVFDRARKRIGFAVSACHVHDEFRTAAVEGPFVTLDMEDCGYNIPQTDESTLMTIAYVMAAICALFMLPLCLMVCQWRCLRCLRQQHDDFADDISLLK
smiles,measurement,setting,value
NC1=N[C@@]2(CO1)c1cc(Br)ccc1Oc1ccc(-c3cccnc3)cc12 [compound 876],IC50,"BACE1 [1]; Table IV, class symbols",0.1 to 1 µM
same,IC50,"BACE1 [2]; Table IV, class symbols",1 to 5 µM
COc1ccc2c(c1)[C@]1(COC(N)=N1)c1cc(C#CC(C)(C)O)cnc1O2 [compound 903],IC50,"BACE1 [1]; Table IV, class symbols",> 5 µM
same,IC50,"BACE1 [2]; Table IV, class symbols",> 5 µM
NC1=N[C@]2(CO1)c1cc(OC3CCC3)ccc1Oc1ccc(-c3cccnc3)cc12 [compound 195],IC50,"BACE1 [1]; Table III, IC50's in uM ranges",< 0.1 µM
same,IC50,"BACE1 [2]; Table III, IC50's in uM ranges",0.1 to 1 µM
COc1cc2c(cc1F)Oc1ccc(-c3cncnc3)cc1[C@@]21COC(N)=N1 [154b],IC50,"BACE1 [1]; Table III, IC50's in uM ranges",< 0.1 µM
same,IC50,"BACE1 [2]; Table III, IC50's in uM ranges",0.1 to 1 µM
"COc1ccc2c(c1)[C@]1(N=C(N)O[C@@H]1C)c1cc(-c3cncnc3)ccc1O2 (single isomer, unassigned) [Example 125c]",IC50,"BACE1 [1]; Table III, IC50's in uM ranges",> 5 µM
same,IC50,"BACE1 [2]; Table III, IC50's in uM ranges",> 5 µM
NC1=N[C@@]2(CO1)c1cc(-c3cccnc3)ccc1Oc1ccc(-c3cncnc3)cc12 [compound 225],IC50,"BACE1 [1]; Table III, IC50's in uM ranges",< 0.1 µM
same,IC50,"BACE1 [2]; Table III, IC50's in uM ranges",< 0.1 µM
NC1=N[C@]2(CO1)c1ccccc1Oc1cc(F)c(-c3cccnc3)cc12 [compound 569],IC50,"BACE1 [1]; Table IV, class symbols",0.1 to 1 µM
same,IC50,"BACE1 [2]; Table IV, class symbols",0.1 to 1 µM
"COc1ccc2c(c1)[C@@]1(COC(N)=N1)c1cc(NC(=O)c3ccc(Cl)cn3)ccc1O2 [Example 55, N-((4R)-2-amino-7′-methoxyspiro[1,3-oxazole-4,9′-xanthen]-2′-yl)-5-chloro-2-pyridinecarboxamide]",IC50,BACE1 [1]; Table II,< 0.1 µM
same,IC50,"BACE1 [2]; Table II, Aβ40, 24 h incubation",0.1 to 1 µM
CC(C)(C)COc1ccc2c(c1)[C@]1(COC(N)=N1)c1cc(-c3cccnc3C(F)(F)F)ccc1O2 [compound 911],IC50,"BACE1 [1]; Table IV, class symbols",0.1 to 1 µM
same,IC50,"BACE1 [2]; Table IV, class symbols",> 5 µM
C=C(C)COc1ccc2c(c1)[C@]1(COC(N)=N1)c1cc(-c3cccnc3)ccc1O2 [compound 146],IC50,"BACE1 [1]; Table III, IC50's in uM ranges",< 0.1 µM
same,IC50,"BACE1 [2]; Table III, IC50's in uM ranges",0.1 to 1 µM
"COc1ccc2c(c1)[C@@]1(N=C(N)O[C@H]1C)c1cc(-c3cncnc3)ccc1O2 (single isomer, unassigned) [Example 125b]",IC50,"BACE1 [1]; Table III, IC50's in uM ranges",0.1 to 1 µM
same,IC50,"BACE1 [2]; Table III, IC50's in uM ranges",0.1 to 1 µM
CC(C)(C#N)COc1ccc2c(c1)[C@]1(COC(N)=N1)c1cc(-c3cncnc3)cnc1O2 [compound 167],IC50,"BACE1 [1]; Table III, IC50's in uM ranges",< 0.1 µM
same,IC50,"BACE1 [2]; Table III, IC50's in uM ranges",0.1 to 1 µM
NC1=N[C@]2(CO1)c1cc(C3=CCOCC3)ccc1Oc1cc(F)c(O)cc12 [compound 491],IC50,BACE1 [1],0.1 to 1 µM
same,IC50,BACE1 [2]; HEK cells,1 to 5 µM
Cn1cc(-c2ccc3c(c2)[C@]2(COC(N)=N2)c2cc(-c4cccnc4F)ccc2O3)cn1 [compound 642],IC50,"BACE1 [1]; Table IV, class symbols",< 0.1 µM
same,IC50,"BACE1 [2]; Table IV, class symbols",< 0.1 µM
Cc1ccc(-c2ccc3c(c2)[C@]2(COC(N)=N2)c2cc(-c4cncnc4)ccc2O3)cc1 [compound 226],IC50,"BACE1 [1]; Table III, IC50's in uM ranges",< 0.1 µM
same,IC50,"BACE1 [2]; Table III, IC50's in uM ranges",< 0.1 µM
NC1=N[C@@]2(CO1)c1cc(-c3cccnc3)ccc1Oc1ccc(C3CC3)cc12 [compound 758],IC50,BACE1 [1],< 0.1 µM
same,IC50,BACE1 [2],0.1 to 1 µM
NC1=N[C@]2(CO1)c1cnccc1Oc1ccc(-c3cccnc3)cc12 [compound 557],IC50,"BACE1 [1]; Table IV, class symbols",> 5 µM
same,IC50,"BACE1 [2]; Table IV, class symbols",1 to 5 µM
NC1=N[C@@]2(CO1)c1cc(Br)ccc1Oc1ccc(Oc3ccccn3)cc12 [compound 206],IC50,"BACE1 [1]; Table III, IC50's in uM ranges",> 5 µM
same,IC50,"BACE1 [2]; Table III, IC50's in uM ranges",0.1 to 1 µM
CCOC(C)(C)C#Cc1cnc2c(c1)[C@]1(COC(N)=N1)c1cc(-c3cccnc3)ccc1O2 [compound 347],IC50,"BACE1 [1]; in vitro BACE FRET enzyme assay, IC50 class symbols",< 0.1 µM
same,IC50,"BACE1 [2]; HEK cell-based assay, Aβ40 in conditioned medium, IC50 class symbols",< 0.1 µM
"COc1ccc2c(c1)[C@@]1(N=C(N)O[C@@H]1C)c1cc(-c3cncnc3)ccc1O2 (single isomer, unassigned) [Example 125d]",IC50,"BACE1 [1]; Table III, IC50's in uM ranges",0.1 to 1 µM
same,IC50,"BACE1 [2]; Table III, IC50's in uM ranges",0.1 to 1 µM
CC(C)(C)CCc1cnc2c(c1)[C@]1(COC(N)=N1)c1cc(-c3cncnc3)ccc1O2 [compound 472],IC50,BACE1 [1],< 0.1 µM
same,IC50,BACE1 [2]; HEK cells,< 0.1 µM
NC1=N[C@@]2(CO1)c1cc(-c3cccnc3)ccc1Oc1cnc(N3CCC4(CC3)OCCO4)cc12 [compound 443],IC50,BACE1 [1],< 0.1 µM
same,IC50,BACE1 [2]; HEK cells,< 0.1 µM
"COc1ccc2c(c1)C1(COC(N)=N1)c1cc(Br)ccc1O2 (stereo not drawn) [Example 35, 2′-bromo-7′-methoxyspiro[1,3-oxazole-4,9′-xanthen]-2-amine]",IC50,BACE1 [1]; Table 1,> 5 µM
same,IC50,"BACE1 [2]; Table 1, Aβ40, 24 h incubation",> 5 µM
NC1=N[C@@]2(CO1)c1cc(-c3ccccc3F)ccc1Oc1cnc(Cl)cc12 [compound 425],IC50,BACE1 [1],0.1 to 1 µM
same,IC50,BACE1 [2]; HEK cells,> 5 µM
